What is called IC50 is the midpoint of a concentration-inhibition curve.

The target of this experiment is T1, Androgen receptor (AR) (Homo sapiens, UniProt P10275).
T1 construct: expressed in transfected cells; host or cells: HEK293T (AR+ARE/Luc)
T1 sequence (P10275 1-920): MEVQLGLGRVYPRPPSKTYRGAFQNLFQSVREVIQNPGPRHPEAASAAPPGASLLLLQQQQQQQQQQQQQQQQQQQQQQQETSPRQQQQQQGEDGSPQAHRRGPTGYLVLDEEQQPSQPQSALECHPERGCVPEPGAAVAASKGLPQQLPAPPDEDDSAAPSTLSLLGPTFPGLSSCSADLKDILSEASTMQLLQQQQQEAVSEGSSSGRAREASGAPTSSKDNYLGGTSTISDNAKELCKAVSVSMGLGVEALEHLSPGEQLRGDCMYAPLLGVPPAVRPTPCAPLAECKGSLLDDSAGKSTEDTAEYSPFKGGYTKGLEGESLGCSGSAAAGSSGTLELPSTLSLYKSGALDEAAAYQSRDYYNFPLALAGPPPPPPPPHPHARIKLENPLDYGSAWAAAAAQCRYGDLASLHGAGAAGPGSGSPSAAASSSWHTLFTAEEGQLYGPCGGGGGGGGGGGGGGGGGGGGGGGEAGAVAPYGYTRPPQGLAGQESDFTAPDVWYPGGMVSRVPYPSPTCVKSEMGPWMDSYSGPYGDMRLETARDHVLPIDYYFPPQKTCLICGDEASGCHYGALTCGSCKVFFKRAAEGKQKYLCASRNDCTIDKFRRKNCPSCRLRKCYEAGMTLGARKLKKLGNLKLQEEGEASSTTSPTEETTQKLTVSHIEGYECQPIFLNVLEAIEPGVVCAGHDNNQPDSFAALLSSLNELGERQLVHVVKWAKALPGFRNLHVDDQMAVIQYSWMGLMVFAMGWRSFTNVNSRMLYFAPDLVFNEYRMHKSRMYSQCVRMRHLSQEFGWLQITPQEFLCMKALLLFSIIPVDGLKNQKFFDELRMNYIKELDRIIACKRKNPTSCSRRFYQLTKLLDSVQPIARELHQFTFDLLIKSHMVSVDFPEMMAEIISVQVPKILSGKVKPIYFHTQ
Nature of the experiment: Androgen receptor (AR) reporter gene assay (luciferase). The following applies: AR+ARE/Luc HEK293T cells, stimulated with 11-KDHT, 24h incubation, Bright-Lite luminescence; read-out: HEK293 Luc IC50. The experiment is classed as cell-based. The protocol: Androgen receptor (AR) reporter gene assay
Experimental reagents: 11-Ketodihydrotestosterone (11-KDHT) was purchased from MCE (cat.HY-135794); Enzalutamide (MDV3100) was purchased from Selleck (cat.S1250); Bright-Lite Luciferase Assay kit was purchased from Vazyme (cat.DD1204-01);
• 1. dissolve the described compounds in 100% DMSO at a final concentration of 10 mM. 100 nL each of 400X compound to be tested and 400X 11-KDHT (40 nM) were added to a 384-well assay plate with Echo, followed by 20 µL of complete medium, and centrifuged at 1000 rpm for 1 min, and oscillated for 20-30 min at room temperature. • 2. 20 µL of AR+ARE/Luc HEK293T cells (10,000 cells/well) were inoculated into the assay plate containing the compounds and 11-KDHT, and centrifuged at 1000 rpm for 1 min. The assay plate was incubated in a 37 °C CO2 incubator for 24h. • 3. 40 µL of Bright-Lite assay reagent was transferred to each well of the assay plate, centrifuged at 1000 rpm for 1 min, and shaken for 2 min at room temperature protected from light. Luminescence values (RLU) were measured using Envision. Based on the results, the IC50 values of the compounds described were calculated. Table 1 HEK293-Luc% inhibition IC50 of representative compounds
`ClCCOc1c(Cl)cc2c(c1Cl)CCCN2c1ccc2[nH]ncc2n1` [HANT-165, 5,7-dichloro-6-(2-chloroethoxy)-1-(1H-pyrazolo[4,3-b]pyridin-5-yl)-1,2,3,4-tetrahydroquinoline]: the IC50 is greater than 2 µM.

As for `ClCCOc1c(Cl)cc2c(c1Cl)CCCN2c1cnc2[nH]ncc2c1` [HANT-166, 5,7-dichloro-6-(2-chloroethoxy)-1-(1H-pyrazolo[3,4-b]pyridin-5-yl)-1,2,3,4-tetrahydroquinoline], the IC50 was in the range of 0.5 to 1 µM.

On to `N#Cc1cc2c(c(Cl)c1OCCCl)CCCC2Nc1ccc(N2CCOCC2)nc1` (stereo not drawn) [HANT-170], for which the IC50 was 0.5 to 1 µM.

`N#Cc1cc2c(c(Cl)c1OCCC(F)(F)F)CCCC2c1cnc2[nH]ncc2c1` (stereo not drawn) [HANT-171]: the IC50 lay in the range of 1 to 2 µM.

Turning to `N#Cc1cc2c(c(Cl)c1OCCCl)CCCC2Nc1cccc2[nH]ncc12` (stereo not drawn) [HANT-173], the IC50 fell in the range of 0.001 to 0.5 µM.

With `N#Cc1cc2c(c(Cl)c1OCCCl)CCCC2Nc1cc[nH]n1` (stereo not drawn) [HANT-175], the half-inhibitory concentration (IC50) was 1 to 2 µM.

As to `CNC(=O)c1cc2c(c(Cl)c1OCCCl)CCCC2c1cnc2[nH]ncc2c1` (stereo not drawn) [HANT-183, 4-chloro-3-(2-chloroethoxy)-N-methyl-8-(1H-pyrazolo[3,4-b]pyridin-5-yl)-5,6,7,8-tetrahydrona phthalene-2-carboxamide], the IC50 fell in the range of 1 to 2 µM.

As for `NCc1cc2c(c(Cl)c1OCCCl)CCCC2c1cnc2[nH]ncc2c1` (stereo not drawn) [HANT-184], the IC50 was in the range of 0.5 to 1 µM.

With `N#Cc1cc2c(c(Cl)c1OCCCl)CCCC2NC(=O)c1ccc2[nH]ncc2c1` (stereo not drawn) [HANT-186], the half-inhibitory concentration (IC50) fell in the range of 0.001 to 0.5 µM.

For the compound `N#Cc1cc2c(c(Cl)c1OCCCl)CCCC2NC(=O)c1cn[nH]c1` (stereo not drawn) [HANT-187], the IC50 was 0.001 to 0.5 µM.

In the case of `N#Cc1cc2c(c(Cl)c1OCCCl)CCCC2NC(=O)c1cc[nH]n1` (stereo not drawn) [HANT-188], the IC50 was in the range of 0.5 to 1 µM.

For the compound `N#Cc1cc2c(c(Cl)c1OCCCl)CCCC2Nc1ccc2[nH]ncc2n1` (stereo not drawn) [HANT-191, 8-((1H-pyrazolo[4,3-b]pyridin-5-yl)amino)-4-chloro-3-(2-chloroethoxy)-5,6,7,8-tetrahydronaph thalene-2-carbonitrile], the IC50 was 0.001 to 0.5 µM.

In the case of `N#Cc1cc2c(c(Cl)c1OCCCl)CCCC2c1cccc2[nH]ncc12` (stereo not drawn) [HANT-193, 4-chloro-3-(2-chloroethoxy)-8-(1H-indazol-7-yl)-5,6,7,8-tetrahydronaphthalene-2-cyanide], the IC50 lay in the range of 0.001 to 0.5 µM.

Consider `N#Cc1cc2c(c(Cl)c1OCCCl)CCCC2c1cccc2cn[nH]c12` (stereo not drawn) [HANT-194], for which the IC50 lay in the range of 0.001 to 0.5 µM.

For `CCCOc1c(C#N)cc2c(c1Cl)CCCC2c1cnc2[nH]ncc2c1` (stereo not drawn) [HANT-196, 4-chloro-3-propoxy-8-(1H-pyrazolo[3,4-b]pyridin-5-yl)-5,6,7,8-tetrahydronaphthalene-2-carbo nitrile], the IC50 is 0.001 to 0.5 µM.

With `N#Cc1cc2c(c(Cl)c1OCCCl)CCCC2c1cn[nH]c1` (stereo not drawn) [HANT-200], the IC50 fell in the range of 0.5 to 1 µM.

Regarding `N#Cc1cc2c(c(Cl)c1OCCCl)CCCC2c1cnc2[nH]c(=O)ccc2c1` (stereo not drawn) [HANT-202], the IC50 lay in the range of 0.001 to 0.5 µM.

With `N#Cc1cc2c(c(Cl)c1OCCCl)CCCC2c1ccc(N)nc1` (stereo not drawn) [HANT-203], the IC50 was in the range of 0.001 to 0.5 µM.

Consider `N#Cc1cc2c(c(Cl)c1OCCCl)CCC[C@@H]2c1cnc(N)nc1` [HANT-204A], for which the IC50 is greater than 2 µM.

For the compound `N#Cc1cc2c(c(Cl)c1OCCCl)CCC[C@H]2c1cnc(N)nc1` [HANT-204B], the IC50 lay within 0.001 to 0.5 µM.

With `CC(=O)Nc1ccc(C2CCCc3c2cc(C#N)c(OCCCl)c3Cl)cn1` (stereo not drawn) [HANT-205], the IC50 was 0.001 to 0.5 µM.

In the case of `CNC(=O)Oc1ccc(C2CCCc3c2cc(C#N)c(OCCCl)c3Cl)cc1` (stereo not drawn) [HANT-206, 4-(5-chloro-6-(2-chloroethoxy)-7-cyano-1,2,3,4-tetrahydronaphthalen-1-yl)phenyl methylcarbamate], the IC50 lay in the range of 0.001 to 0.5 µM.

On to `N#Cc1cc2c(c(Cl)c1OCCCl)CCCC2c1cnc2[nH]c(=O)oc2c1` (stereo not drawn) [HANT-207, 4-chloro-3-(2-chloroethoxy)-8-(2-oxo-2,3-dihydrooxazolo[4,5-b]pyridin-6-yl)-5,6,7,8-tetrahydr onaphthalene-2-carbonitrile], for which the IC50 lay within 0.5 to 1 µM.

Take `N#Cc1cc2c(c(Cl)c1OCCCl)CCCC2c1ccc2oc(=O)[nH]c2c1` (stereo not drawn) [HANT-208]: the IC50 lay within 0.001 to 0.5 µM.

Consider `N#Cc1cc2c(c(Cl)c1OCCCl)CCCC2NC(=O)C1CCCCC1` (stereo not drawn) [HANT-209], for which the IC50 is 0.5 to 1 µM.

Regarding `N#Cc1cc2c(c(Cl)c1OCCCl)CCCC2NC(=O)c1ccccc1` (stereo not drawn) [HANT-212], the IC50 is 0.001 to 0.5 µM.

For the compound `N#Cc1cc2c(c(Cl)c1OCCCl)CCCC2NC(=O)c1cccnc1` (stereo not drawn) [HANT-213], the IC50 fell in the range of 1 to 2 µM.

`N#Cc1cc2c(c(Cl)c1OCCCl)CCCC2NC(=O)c1ccncc1` (stereo not drawn) [HANT-214]: the half-maximal inhibitory concentration (IC50) was in the range of 0.5 to 1 µM.

Regarding `N#Cc1cc2c(c(Cl)c1OCCCl)CCCC2NC(=O)c1ccccn1` (stereo not drawn) [HANT-215], the IC50 lay in the range of 0.001 to 0.5 µM.

Consider `N#Cc1cc2c(c(Cl)c1OCCCl)CCCC2c1cnc2[nH]nc(-c3ccncc3)c2c1` (stereo not drawn) [HANT-218, 4-chloro-3-(2-chloroethoxy)-8-(3-(pyridin-4-yl)-1H-pyrazolo[3,4-b]pyridin-5-yl)-5,6,7,8-tetrah ydronaphthalene-2-carbonitrile], for which the IC50 lay within 0.001 to 0.5 µM.

Regarding `N#Cc1cc2c(c(Cl)c1OCCCl)CCCC2c1cnc2[nH]nc(C3CCOCC3)c2c1` (stereo not drawn) [HANT-220, 4-chloro-3-(2-chloroethoxy)-8-(3-(tetrahydro-2H-pyran-4-yl)-1H-pyrazolo[3,4-b]pyridin-5-yl)-5,6,7,8-tetrahydronaphthalene-2-cyanide], the IC50 was greater than 2 µM.

`N#Cc1cc2c(c(Cl)c1OCCCl)CCCC2Nc1cc2cn[nH]c2cn1` (stereo not drawn) [HANT-224]: the IC50 was 0.001 to 0.5 µM.

Regarding `N#Cc1cc2c(c(Cl)c1OCCCl)CCCC2Nc1ccc2[nH]ncc2c1` (stereo not drawn) [HANT-225, 8-((1H-indazol-5-yl)amino)-4-chloro-3-(2-chloroethoxy)-5,6,7,8-tetrahydronaphthalene-2-carb onitrile], the IC50 lay within 0.001 to 0.5 µM.

Consider `N#Cc1cc2c(c(Cl)c1OCCCl)CCCC2Nc1ccccc1` (stereo not drawn) [HANT-226], for which the IC50 lay within 0.001 to 0.5 µM.

As to `N#Cc1cc2c(c(Cl)c1OCCCl)CCCC2Nc1cccnc1` (stereo not drawn) [HANT-227], the IC50 lay within 0.001 to 0.5 µM.

Regarding `N#Cc1cc2c(c(Cl)c1OCCCl)CCCC2Nc1ccncc1` (stereo not drawn) [HANT-228], the IC50 is greater than 2 µM.

For the compound `N#Cc1cc2c(c(Cl)c1OCCCl)CCCC2Nc1ccc2cn[nH]c2c1` (stereo not drawn) [HANT-229, 8-((1H-indazol-6-yl)amino)-4-chloro-3-(2-chloroethoxy)-5,6,7,8-tetrahydronaphthalene-2-carb onitrile], the IC50 is 0.001 to 0.5 µM.

As for `N#Cc1cc2c(c(Cl)c1OCCCl)CCCC2NC(=O)c1ccc(Cl)cc1` (stereo not drawn) [HANT-232], the IC50 lay within 0.001 to 0.5 µM.

Turning to `N#Cc1cc2c(c(Cl)c1OCCCl)CCCC2NC(=O)c1cccc(Cl)c1` (stereo not drawn) [HANT-233], the concentration for half-maximal inhibition (IC50) was in the range of 0.001 to 0.5 µM.

As for `N#Cc1ccc(C(=O)NC2CCCc3c2cc(C#N)c(OCCCl)c3Cl)cc1` (stereo not drawn) [HANT-234], the IC50 is 0.001 to 0.5 µM.

With `COc1ccc(C(=O)NC2CCCc3c2cc(C#N)c(OCCCl)c3Cl)cc1` (stereo not drawn) [HANT-235], the 50% inhibitory concentration (IC50) lay within 0.5 to 1 µM.

For `N#Cc1cc2c(c(Cl)c1OCCCl)CCCC2Nc1cn[nH]c1` (stereo not drawn) [HANT-239, 8-((1H-pyrazol-4-yl)amino)-4-chloro-3-(2-chloroethoxy)-5,6,7,8-tetrahydronaphthalene-2-carb onitrile], the IC50 was in the range of 0.5 to 1 µM.

With `N#Cc1cc2c(c(Cl)c1OCCCl)CCCC2Nc1ccc(N)nc1` (stereo not drawn) [HANT-240, 8-((6-aminopyridin-3-yl)amino)-4-chloro-3-(2-chloroethoxy)-5,6,7,8-tetrahydronaphthalene-2-c arbonitrile], the IC50 is 0.5 to 1 µM.

Regarding `COc1ccc(NC2CCCc3c2cc(C#N)c(OCCCl)c3Cl)cn1` (stereo not drawn) [HANT-241], the IC50 is 0.001 to 0.5 µM.

Take `N#Cc1cc2c(c(Cl)c1OCCCl)CCCC2c1cncnc1` (stereo not drawn) [HANT-246]: the IC50 is 0.001 to 0.5 µM.

These data come from patent publication EP4678634A1, “ANDROGEN RECEPTOR MODULATORS AND USES THEREOF” (Haihe Biopharma Co., Ltd., priority 2023, dated 2024).
